Our source for the IC50 values is US11780839B2, “Compounds for treating Huntington's disease” (PTC THERAPEUTICS, INC., priority 2018, dated 2023).

This assay has as its system Endogenous Huntingtin Protein. The experiment in a line: Endogenous Huntingtin Protein Assay (ELISA-based Meso Scale Discovery electrochemiluminescence). The settings on record: MSD electrochemiluminescence, Table 1. Format: cell-based. Put shortly:
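Sandwich MSD electrochemiluminescence immunoassay. Capture used MW1 (expanded polyglutamine) or MAB2166 antibody coated at 1 μg/mL overnight at 4 °C. Samples were bound overnight at 4 °C, then a rabbit monoclonal detection antibody and SULFO-TAG anti-rabbit, each at 0.25 μg/mL, were applied for 1 h at room temperature.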
A general note: ELISA stands for enzyme-linked immunosorbent assay.
The term IC50 denotes the concentration that gives 50% inhibition. `CC(C)(C)NC1CN(c2ncc(-c3ccc(-c4cn[nH]c4)cc3O)nn2)CC1F` (centres unmarked) [Cpd 278, 2-{3-[3-(tert-butylamino)-4-fluoropyrrolidin-1-yl]-1,2,4-triazin-6-yl}-5-(1H-pyrazol-4-yl)phenol] yielded an IC50 of at most 100 nM. The value for `CN(c1cnc(-c2ccc(-c3cccnc3)cc2O)nn1)C1CC(C)(C)NC(C)(C)C1` [Cpd 384, 2-{6-[methyl(2,2,6,6-tetramethylpiperidin-4-yl)amino]-1,2,4-triazin-3-yl}-5-(pyridin-3-yl)phenol] was at most 100 nM; that for `CN(c1ncc(-c2ccc(-c3cc[nH]n3)cc2O)nn1)C1CC(C)(C)NC(C)(C)C1` [Cpd 111, 2-{3-[methyl(2,2,6,6-tetramethylpiperidin-4-yl)amino]-1,2,4-triazin-6-yl}-5-(1H-pyrazol-3-yl)phenol] was at most 100 nM; that for `Cn1nnc(-c2ccc(-c3cnc(N[C@H]4CC(C)(C)NC(C)(C)[C@H]4F)nn3)c(O)c2)n1` [Cpd 291, 2-(3-{[(3S,4S)-3-fluoro-2,2,6,6-tetramethylpiperidin-4-yl]amino}-1,2,4-triazin-6-yl)-5-(2-methyl-2H-tetrazol-5-yl)phenol] was at most 100 nM. The value for `CC(C)NCC1CCN(c2ncc(-c3ccc(-c4cn[nH]c4)cc3O)nn2)C1` (stereo not drawn) [Cpd 361, 2-[3-(3-{[(propan-2-yl)amino]methyl}pyrrolidin-l-yl)-1,2,4-triazin-6-yl]-5-(1H-pyrazol-4-yl)phenol] was at most 100 nM. For `CNC1CCN(c2ncc(-c3ccc(-c4nnn(C)n4)cc3O)nn2)C1` (centres unmarked) [Cpd 320, 2-{3-[3-(methylamino)pyrrolidin-1-yl]-1,2,4-triazin-6-yl}-5-(2-methyl-2H-tetrazol-5-yl)phenol] the value was 100 to 500 nM; for `Oc1cc(-c2cn[nH]c2)ccc1-c1cnc(N2C[C@H]3CNCC[C@H]3C2)nn1` [Cpd 327, 2-{3-[(3aR,7aR)-octahydro-2H-pyrrolo[3,4-c]pyridin-2-yl]-1,2,4-triazin-6-yl}-5-(1H-pyrazol-4-yl)phenol], at most 100 nM; for `CC(C)(C)NC1CCN(c2ncc(-c3ccc(-c4ncccn4)cc3O)nn2)C1` (stereo not drawn) [Cpd 209, 2-{3-[3-(tert-butylamino)pyrrolidin-l-yl]-1,2,4-triazin-6-yl}-5-(pyrimidin-2-yl)phenol], 1000 to 3000 nM. In the case of `CN[C@H]1CCN(c2ncc(-c3ccc(-c4cn[nH]c4)cc3O)nn2)C1` [Cpd 114, 2-{3-[(3S)-3-(methylamino)pyrrolidin-l-yl]-1,2,4-triazin-6-yl}-5-(1H-pyrazol-4-yl)phenol], the IC50 was at most 100 nM. In turn, `CC1(C)C[C@@H](Nc2ncc(-c3ccc(-c4cn[nH]c4)cc3O)nn2)[C@@H](F)C(C)(C)N1` [Cpd 323, 2-(3-{[(3R,4R)-3-fluoro-2,2,6,6-tetramethylpiperidin-4-yl]amino}-1,2,4-triazin-6-yl)-5-(1H-pyrazol-4-yl)phenol] came in with an IC50 of at most 100 nM.

Turning to `CC1(C)CC(Nc2ncc(-c3ccc(-n4cnc(F)c4)cc3O)nn2)CC(C)(C)N1` [Cpd 275, 5-(4-fluoro-1H-imidazol-1-yl)-2-{3-[(2,2,6,6-tetramethylpiperidin-4-yl)amino]-1,2,4-triazin-6-yl}phenol], the IC50 was at most 100 nM. The value for `CN(c1ncc(-c2cc(F)c(-c3ccn[nH]3)cc2O)nn1)C1CC(C)(C)NC(C)(C)C1` [Cpd 125, 4-fluoro-2-{3-[methyl(2,2,6,6-tetramethylpiperidin-4-yl)amino]-1,2,4-triazin-6-yl}-5-(1H-pyrazol-5-yl)phenol] was at most 100 nM; that for `CN(c1ncc(-c2ccc(-c3cn[nH]c3)cc2O)nn1)C1C[C@H]2CCC[C@@H](C1)N2C` (stereo partly drawn) [Cpd 87, 2-(3-{methyl[(1R,3s,5S)-9-methyl-9-azabicyclo[3.3.1]nonan-3-yl]amino}-1,2,4-triazin-6-yl)-5-(1H-pyrazol-4-yl)phenol] was at most 100 nM.

In turn, `Cc1cc(-c2ccc(-c3cnc(N(C)C4CC(C)(C)NC(C)(C)C4)nn3)c(O)c2)nc(O)c1N` [Cpd 168, 3-amino-6-(3-hydroxy-4-{3-[methyl(2,2,6,6-tetramethylpiperidin-4-yl)amino]-1,2,4-triazin-6-yl}phenyl)-4-methylpyridin-2-ol] had an IC50 of 100 to 500 nM. For `CN(c1ncc(-c2ccc(-c3ncc(F)cn3)cc2O)nn1)C1CC(C)(C)NC(C)(C)C1` [Cpd 112, 5-(5-fluoropyrimidin-2-yl)-2-{3-[methyl(2,2,6,6-tetramethylpiperidin-4-yl)amino]-1,2,4-triazin-6-yl}phenol] the value was 100 to 500 nM. `CN(c1ncc(-c2ccc(-c3cc(CO)ncn3)cc2O)nn1)C1CC(C)(C)NC(C)(C)C1` [Cpd 179, 5-[6-(hydroxymethyl)pyrimidin-4-yl]-2-{3-[methyl(2,2,6,6-tetramethylpiperidin-4-yl)amino]-1,2,4-triazin-6-yl}phenol]: the IC50 is at most 100 nM. The value for `CN(c1ncc(-c2ccc(-c3ncc4c(cnn4C)n3)cc2O)nn1)C1CC(C)(C)NC(C)(C)C1` [Cpd 281, 5-(1-methyl-1H-pyrazolo[4,3-d]pyrimidin-5-yl)-2-{3-[methyl(2,2,6,6-tetramethylpiperidin-4-yl)amino]-1,2,4-triazin-6-yl}phenol] was at most 100 nM; that for `CC(C)NC1CCN(c2ncc(-c3ccc(-c4ccc5nccn5n4)cc3O)nn2)C1` (centres unmarked) [Cpd 294] was at most 100 nM; that for `CN(c1ncc(-c2ccc(-n3cc(O)cn3)cc2O)nn1)C1CC(C)(C)NC(C)(C)C1` [Cpd 90, 1-(3-hydroxy-4-{3-[methyl(2,2,6,6-tetramethylpiperidin-4-yl)amino]-1,2,4-triazin-6-yl}phenyl)-1H-pyrazol-4-ol] was at most 100 nM. The value for `CC(C)NC1CCN(c2ncc(-c3ccc(-c4cn5ccnc5cn4)cc3O)nn2)C1` (centres unmarked) [Cpd 283, 5-(imidazo[1,2-a]pyrazin-6-yl)-2-(3-{3-[(propan-2-yl)amino]pyrrolidin-1-yl}-1,2,4-triazin-6-yl)phenol] was 1000 to 3000 nM; that for `CN(c1ncc(-c2ccc(-c3ccc4nnn(C)c4n3)cc2O)nn1)C1CC(C)(C)NC(C)(C)C1` [Cpd 173] was at most 100 nM.

For “5-[1-(^2H3)methyl-1H-pyrazol-4-yl]-2-{6-[methyl(2,2,6,6-tetramethylpiperidin-4-yl)amino]-1,2,4-triazin-3-yl}phenol [Cpd 192]”, the concentration for half-maximal inhibition (IC50) was 100 to 500 nM.

`Oc1cc(-c2cn[nH]c2)ccc1-c1cnc(N2CCC(CNC3CCOCC3)C2)nn1` (centres unmarked) [Cpd 372, 2-[3-(3-{[(oxan-4-yl)amino]methyl}pyrrolidin-1-yl)-1,2,4-triazin-6-yl]-5-(1H-pyrazol-4-yl)phenol] registered a 50% inhibitory concentration (IC50) of at most 100 nM. The value for `Oc1cc(-c2cn[nH]c2)ccc1-c1cnc(N[C@H]2CCNC[C@H]2F)nn1` [Cpd 345, 2-(3-{[(3R,4S)-3-fluoropiperidin-4-yl]amino}-1,2,4-triazin-6-yl)-5-(1H-pyrazol-4-yl)phenol] was 100 to 500 nM; that for `CN(c1ncc(-c2ccc(-c3n[nH]cc3F)cc2O)nn1)C1CC(C)(C)NC(C)(C)C1` [Cpd 156, 5-(4-fluoro-1H-pyrazol-3-yl)-2-{3-[methyl(2,2,6,6-tetramethylpiperidin-4-yl)amino]-1,2,4-triazin-6-yl}phenol] was at most 100 nM. For `CN1CCC[C@H]2CN(c3ncc(-c4ccc(-c5cn[nH]c5)cc4O)nn3)C[C@H]21` [Cpd 310, 2-{3-[(4aS,7aS)-1-methyloctahydro-6H-pyrrolo[3,4-b]pyridin-6-yl]-1,2,4-triazin-6-yl}-5-(1H-pyrazol-4-yl)phenol] the value was 100 to 500 nM; for `Oc1cc(-c2cn[nH]c2)ccc1-c1cnc(N2CCC(CNC3CC4CCC(C3)O4)C2)nn1` (centres unmarked) [Cpd 405, 2-[3-(3-{[(8-oxabicyclo[3.2.1]octan-3-yl)amino]methyl}pyrrolidin-1-yl)-1,2,4-triazin-6-yl]-5-(1H-pyrazol-4-yl)phenol], at most 100 nM. On to `CC1(C)CC(Nc2ncc(-c3ccc(-c4c[nH]nc4F)cc3O)nn2)CC(C)(C)N1` [Cpd 73, 5-(3-fluoro-1H-pyrazol-4-yl)-2-{3-[(2,2,6,6-tetramethylpiperidin-4-yl)amino]-1,2,4-triazin-6-yl}phenol], for which the IC50 was at most 100 nM. The value for `N[C@@H]1CN(c2ncc(-c3ccc(-c4cn[nH]c4)cc3O)nn2)CC12CC2` [Cpd 115, 2-{3-[(7S)-7-amino-5-azaspiro[2.4]heptan-5-yl]-1,2,4-triazin-6-yl}-5-(1H-pyrazol-4-yl)phenol] was 100 to 500 nM. For `Cc1ncc(-c2ccc(-c3cnc(N(C)C4CC(C)(C)NC(C)(C)C4)nn3)c(O)c2)o1` [Cpd 74, 5-(2-methyl-1,3-oxazol-5-yl)-2-{3-[methyl(2,2,6,6-tetramethylpiperidin-4-yl)amino]-1,2,4-triazin-6-yl}phenol] the value was at most 100 nM; for `CN1CCC2(CC1)CN(c1ncc(-c3ccc(-c4cn5ccnc5cn4)cc3O)nn1)C2` [Cpd 257, 5-(imidazo[1,2-a]pyrazin-6-yl)-2-[3-(7-methyl-2,7-diazaspiro[3.5]nonan-2-yl)-1,2,4-triazin-6-yl]phenol], 1000 to 3000 nM; for `CC1(C)C[C@H](Nc2ncc(-c3ccc(-c4ccc5nccn5n4)cc3O)nn2)[C@H](F)C(C)(C)N1` [Cpd 249, 2-(3-{[(3S,4S)-3-fluoro-2,2,6,6-tetramethylpiperidin-4-yl]amino}-1,2,4-triazin-6-yl)-5-(imidazo[1,2-b]pyridazin-6-yl)phenol], at most 100 nM. In turn, `CN(c1ncc(-c2ccc(-c3cnn(C)n3)cc2O)nn1)C1CC(C)(C)NC(C)(C)C1` [Cpd 23, 2-{3-[methyl(2,2,6,6-tetramethylpiperidin-4-yl)amino]-1,2,4-triazin-6-yl}-5-(2-methyl-2H-1,2,3-triazol-4-yl)phenol] yielded a 50% inhibitory concentration (IC50) of at most 100 nM. For `CN(c1cnc(-c2ccc(-c3ccn(C)n3)cc2O)nn1)C1CC(C)(C)NC(C)(C)C1` [Cpd 343, 5-(1-methyl-1H-pyrazol-3-yl)-2-{6-[methyl(2,2,6,6-tetramethylpiperidin-4-yl)amino]-1,2,4-triazin-3-yl}phenol] the value was at most 100 nM; for `CC(C)NC1CCN(c2ncc(-c3ccc(-c4cn[nH]c4F)cc3O)nn2)C1` (centres unmarked) [Cpd 235, 5-(5-fluoro-1H-pyrazol-4-yl)-2-(3-{3-[(propan-2-yl)amino]pyrrolidin-1-yl}-1,2,4-triazin-6-yl)phenol], at most 100 nM.
